Test results published in US11020414B2, “Antimicrobial compositions with cysteamine” (priority 2010, dated 2021).
Where “and” joins values, the source holds several entries; their conditions need not be identical. Equal entries are not always repeated. Structures can show the parent of a compound that is named as a salt. Where two headings read alike, the source gives them in different places.

Experiments:
[1] = tested on: Pseudomonas aeruginosa Pa01; experiment: MIC determination, strain Pa01; assay type: cell-based
Method: (§1) The bacterial inoculum was established by the dilution method from actively-growing cultures in Mueller-Hinton (MH) broth, standardized with 0.5 McFarland turbidity standard as described in the CLSI method M26-A.
(§2) Both the bacterial inoculum and the antimicrobial agents, including the compounds structurally related to cysteamine, were added simultaneously to the plates. The plates were incubated at 37° C. for 24 h and the optical density was read at 625 nm on a microtitre plate reader (BioTek Powerwave XS, Winooski, USA). […]
(§3) A number of compounds related in chemical structure to cysteamine were examined for antimicrobial activity; cystamine (dihydrochloride salt), taurine and 2,3-dimercaptosuccinic acid. Other compounds chemically related to cysteamine are known, but are toxic, and are therefore of no utility in a drug of this nature.

[2] = tested on: Pseudomonas aeruginosa Pa14; experiment: MIC determination, strain Pa14; assay type: cell-based
Method: as §1, §2, §3

[3] = tested on: Pseudomonas aeruginosa Pa058; experiment: MIC determination, strain Pa058; assay type: cell-based
Method: as §1, §2, §3

[4] = tested on: Pseudomonas aeruginosa NH57388A; experiment: MIC determination, strain NH57388A; assay type: cell-based
Method: as §1, §2, §3

[5] = tested on: Burkholderia cepacia NCTC10743; experiment: MIC100 and FIC of cysteamine and tobramycin, MH broth (CLSI) and artificial sputum medium; assay type: cell-based
Method: (§4) Both the bacterial inoculum and the antimicrobial agents, including the compounds structurally related to cysteamine, were added simultaneously to the plates. The plates were incubated at 37° C. for 24 h and the optical density was read at 625 nm on a microtitre plate reader (BioTek Powerwave XS, Winooski, USA). The MIC was obtained as the lowest concentration of antimicrobial showing total inhibition of bacterial growth.
(§5) The FIC corresponds to an interaction coefficient indicating whether the combination of antimicrobial agents is synergistic, additive, antagonist or neutral. The FIC is determined by comparing the activity of an agent in combination (MIC of agent A+agent B) with the activity of the agent alone (MIC of agent A or agent B) as follow (Singh et al., 2000): FIC=MICA[combination]/MICA[alone]+MICB[combination]/MICB[alone]
(§6) The complex pathophysiology of CF is characterized by airway obstruction caused by abnormal mucus secretion and infection, with 60-80% of patients being chronically infected with the biofilm-forming bacteria Pseudomonas aeruginosa (George et al., 2009). With a prevalence of up to 10% in adult CF patients, B. cepacia complex is a rare but major concern due to its high virulence, morbidity and transmissibility (O'Malley, 2009; Brüssow, 2012). We tested the antimicrobial activity of cysteamine-tobramycin combinations in artificial sputum medium (Yang, et al., 2011) against 4 P. aeruginosa (PAO1, ATCC27853, DSMZ1128 and DSMZ1299) and 2 B. cepacia complex strains (NCTC10743 and NCTC10744).

[6] = tested on: Burkholderia cepacia NCTC10744; experiment: as above; assay type: cell-based; settings: read-out: MIC100, agent alone
Method: as §4, §5, §6

[7] = tested on: P. aeruginosa PAO1 biofilm; experiment: Minimum biofilm eradication concentration against established biofilm (FIG. 4); assay type: cell-based, Pseudomonas aeruginosa
[8] = tested on: 4 P. aeruginosa (PAO1, ATCC27853, DSMZ1128 and DSMZ1299) and 2 B. cepacia complex strains (NCTC10743 and NCTC10744); experiment: microbe, parasite or virus in culture; assay type: cell-based, Pseudomonas aeruginosa; Burkholderia cepacia complex; settings: all strains
Source text: as §6

[9] = tested on: P. aeruginosa PAO1 planktonic cells; experiment: MIC in physiologically-relevant ionic concentrations (FIG. 7); assay type: cell-based, Pseudomonas aeruginosa; settings: in the presence of Ca2+ and in the presence of DNA
Method: Bacterial growth was followed over a 24 h period and absorbance read using a BioTek microtitre plate reader at 625 nm. Total bacterial growth inhibition was retained in the presence of NaCl, CaCl2 or DNA and at two-fold the normal MIC100 in the presence of mucin. Tobramycin activity was inhibited in the presence of the divalent cation ca^2+ and in the presence of the anionic polymer DNA. […] A similar method as described above (1.4) was used for the determination of the antimicrobial activity of cysteamine (Lynovex®) in the presence of high ionic concentrations. […] Bacterial growth was followed over a 24 h period and absorbance read using a BioTek microtitre plate reader at 625 nm.

P. aeruginosa ATCC 27853 = experiment: MIC and FIC of antibiotics with cysteamine, environments mimicking a CF lung; assay type: cell-based, Pseudomonas aeruginosa; settings: for MIC upon administration with cysteamine compared to administration alone: environments mimicking those found in a CF lung; for antimicrobial effect in combination with cysteamine: mucolytic environment
Method: as §4, §5
The range of concentrations of antimicrobial agents was 0-10 μg/ml.

[10] = tested on: Pseudomonas aeruginosa Pa01; experiment: FIC index of combinations with conventional antibiotics, strain Pa01; assay type: cell-based; settings: strain Pa01 (Col^R), hydrochloride
Method: as §1, §4, §5
(§7) Additive combinations of two antimicrobial agents are indicated by a FIC index of 1, whereas a FIC index<1 indicates synergistic combinations. Neutral combinations would give a FIC between 1 and 4, a FIC index higher than 4 indicates antagonist effects between the two antimicrobial agents.
(§8) The FIC was also calculated to assess the interaction of two antimicrobial agents in combination against bacterial samples.

[11] = tested on: Pseudomonas aeruginosa Pa14; experiment: FIC index of combinations with conventional antibiotics, strain Pa14; assay type: cell-based; settings: strain Pa14 (Col^R), hydrochloride
Method: as §1, §4, §5, §7, §8

[12] = tested on: Pseudomonas aeruginosa Pa058; experiment: FIC index of combinations with conventional antibiotics, strain Pa058; assay type: cell-based; settings: strain Pa058 (Col^R, Cip^R Tob^R), hydrochloride
Method: as §1, §4, §5, §7, §8

[13] = tested on: Pseudomonas aeruginosa Pa57388A; experiment: FIC index of combinations with conventional antibiotics, strain Pa57388A; assay type: cell-based; settings: strain Pa57388A (Col^R), hydrochloride
Method: as §1, §4, §5, §7, §8

[14] = tested on: Pseudomonas aeruginosa Pa57388D; experiment: FIC index of combinations with conventional antibiotics, strain Pa57388D; assay type: cell-based; settings: strain Pa57388D (Col^R, Gent^R), hydrochloride
Method: as §1, §4, §5, §7, §8

[15] = in combination with Ciprofloxacin

With `NCCS(=O)(=O)O` [Taurine, taurine] as the compound, how does the MIC50 [1] read?
Its MIC50 is greater than 2000 µg/mL.

And the MIC90 [1]?
The MIC90 was greater than 2000 µg/mL.

What about the MIC ([1]; read-out: MIC100) of the same compound?
Its MIC is greater than 2000 µg/mL.

And the MIC50 [2]?
The MIC50 was greater than 2000 µg/mL.

What about the MIC90 [2] of the same compound?
The MIC90 was greater than 2000 µg/mL.

And the MIC ([2]; read-out: MIC100)?
The MIC was greater than 2000 µg/mL.

And the MIC50 [3]?
Its MIC50 is greater than 2000 µg/mL.

And the MIC90 [3]?
Its MIC90 is greater than 2000 µg/mL.

What about the MIC ([3]; read-out: MIC100) of the same compound?
Its MIC is greater than 2000 µg/mL.

What about the MIC50 [4] of the same compound?
Its MIC50 is greater than 2000 µg/mL.

And the MIC90 [4]?
Its MIC90 is greater than 2000 µg/mL.

And the MIC ([4]; read-out: MIC100)?
Its MIC is greater than 2000 µg/mL.

What does the source list for `NC[C@H]1O[C@H](O[C@H]2[C@H](O)[C@@H](O[C@H]3O[C@H](CO)[C@@H](O)[C@H](N)[C@H]3O)[C@H](N)C[C@@H]2N)[C@H](N)C[C@@H]1O` [Tobramycin, reference compound]?
MIC ([5]; NCTC10743, B. cepacia NCTC10743, FIG. 6, read-out: MIC100, agent alone): > 16 µg/mL; MIC ([5]; NCTC10743, B. cepacia NCTC10743, in both media (MH broth and ASM), FIG. 11, read-out: MIC100, agent alone): > 16 µg/mL; MIC ([5]; NCTC10743, B. cepacia NH10743, ASM (Artificial Sputum Medium), read-out: MIC100, agent alone): > 16 µg/mL; MIC ([5]; NCTC10743, B. cepacia NH10743, CLSI, read-out: MIC100, agent alone): > 16 µg/mL; MIC ([6]; NCTC10744, B. cepacia NH10744, ASM (Artificial Sputum Medium)): > 16 µg/mL; MIC ([6]; NCTC10744, B. cepacia NH10744, CLSI): > 16 µg/mL; minimum biofilm eradication concentration (MBEC), agent alone [7]: 4 µg/mL; tobramycin activity in the presence of cysteamine [8]: enhanced; Tobramycin activity [9]: inhibited; MIC upon administration with cysteamine compared to administration alone (P. aeruginosa ATCC 27853): greatly reduced; antimicrobial effect in combination with cysteamine (P. aeruginosa ATCC 27853): maintained

For `O=C(O)c1cn(C2CC2)c2cc(N3CCNCC3)c(F)cc2c1=O` [Ciprofloxacin], which “MIC upon administration with cysteamine compared to administration alone” value (P. aeruginosa ATCC 27853) is on record?
The value was “greatly reduced”.

And the “antimicrobial effect in combination with cysteamine” value (P. aeruginosa ATCC 27853)?
Its value is “maintained”.

With `NCCS` [Cysteamine Hydrochloride (Cyst HCl), Cysteamine hydrochloride] as the compound, how does the “FICI (Additive) Cip” value [10, 15] read?
The value was 0.75 and 0.52 and 0.56.

What about the “FICI (Additive) Col” value ([10]; in combination with Colistin) of the same compound?
Its value is 0.5.

What about the “FICI (Additive) Gent” value ([10]; in combination with Gentamicin) of the same compound?
Its value is 0.75 and 0.5.

What about the “FICI (Additive) Tob” value ([10]; in combination with Tobramycin) of the same compound?
The value was 0.51 and 0.53 and 0.5.

What about the “FICI (Synergy) Tob” value ([10]; in combination with Tobramycin) of the same compound?
Its value is 0.25 and 0.31 and 0.38 and 0.28 and 0.19.

What about the “FICI (Additive) Cip” value [11, 15] of the same compound?
Its value is 0.56 and 0.63 and 0.5.

And the “FICI (Synergy) Cip” value [11, 15]?
The value was 0.31 and 0.37 and 0.38.

What about the “FICI (Additive) Col” value ([11]; in combination with Colistin) of the same compound?
The value was 0.51 and 0.5 and 0.53 and 0.52.

What about the “FICI (Additive) Gent” value ([11]; in combination with Gentamicin) of the same compound?
The value was 0.5 and 0.63 and 0.56.

What about the “FICI (Additive) Tob” value ([11]; in combination with Tobramycin) of the same compound?
The value was 0.63 and 0.75 and 0.5.

What about the “FICI (Additive) Cip” value [12, 15] of the same compound?
Its value is 0.53 and 0.63 and 0.75 and 0.56.

And the “FICI (Additive) Col” value ([12]; in combination with Colistin)?
Its value is 0.52 and 0.75 and 0.56 and 0.5.

And the “FICI (Synergy) Col” value ([12]; in combination with Colistin)?
Its value is 0.38.

What about the “FICI (Additive) Gent” value ([12]; in combination with Gentamicin) of the same compound?
Its value is 0.75.

And the “FICI (Additive) Cip” value [13, 15]?
Its value is 0.53 and 0.5 and 0.63 and 0.56 and 0.75.

And the “FICI (Synergy) Cip” value [13, 15]?
The value was 0.19 and 0.25.

And the “FICI (Additive) Col” value ([13]; in combination with Colistin)?
Its value is 0.53 and 0.52 and 0.5.

And the “FICI (Synergy) Col” value ([13]; in combination with Colistin)?
Its value is 0.25 and 0.31 and 0.19 and 0.26.

What about the “FICI (Additive) Gent” value ([13]; in combination with Gentamicin) of the same compound?
Its value is 0.63.

And the “FICI (Additive) Tob” value ([13]; in combination with Tobramycin)?
Its value is 0.63 and 0.75.

What about the “FICI (Additive) Cip” value [14, 15] of the same compound?
Its value is 0.56 and 0.53.

And the “FICI (Synergy) Cip” value [14, 15]?
Its value is 0.31 and 0.38.

What about the “FICI (Additive) Col” value ([14]; in combination with Colistin) of the same compound?
Its value is 0.52 and 0.53.

And the “FICI (Synergy) Col” value ([14]; in combination with Colistin)?
The value was 0.19 and 0.28 and 0.25 and 0.31.

And the “FICI (Additive) Gent” value ([14]; in combination with Gentamicin)?
Its value is 0.53 and 0.52.

What about the “FICI (Additive) Tob” value ([14]; in combination with Tobramycin) of the same compound?
The value was 0.51 and 0.5.

What about the “FICI (Synergy) Tob” value ([14]; in combination with Tobramycin) of the same compound?
The value was 0.25 and 0.31 and 0.19.
